According to patent US5336690A, “Aminosulfonyl carbamates composition and method of use to treat hypercholesterolemia and atherosclerosis” (Warner-Lambert Company, priority 1993, dated 1994):
Where two headings read alike, the source gives them in different places.

Assay: APCC in vivo screen: blood cholesterol in male Sprague-Dawley rats on high fat, high cholesterol diet with 0.5% cholic acid
Conditions: high fat high cholesterol diet overnight, read-out: % Change (mg/dl) (cholesterol); for change in vivo at 30 mg/kg: single dose 30 mg/kg; for change in vivo at 50 mg/kg: single dose 50 mg/kg (*)
From the text: In one in vivo screen designated APCC, male Sprague-Dawley rats (200 to 225 g) were randomly divided into treatment groups and dosed at 4 PM with either vehicle (CMC/Tween) or suspensions of compounds in vehicle. The normal chow diet was then replaced with a high fat, high cholesterol diet with 0.5% cholic acid. The rats consumed this diet ad libitum during the night and were sacrificed at 8 AM to obtain blood samples for cholesterol analysis using standard procedures. Statistical differences between mean cholesterol values for the same vehicle were determined using analysis of variance followed by Fisher's least significant test. The compounds were dosed at 30 mg/kg unless otherwise noted.

Row | Compound | change in vivo at 50 mg/kg (Rattus norvegicus) | further results
1 | CCCCCCCCCCCCOC(=O)NS(=O)(=O)Nc1c(C(C)C)cccc1C(C)C [Example 2] | – | change in vivo at 30 mg/kg (rat): 0%
2 | COc1cc(C(C)(C)C)c(OC(=O)NS(=O)(=O)NCC(c2ccccc2)c2ccccc2)c(C(C)(C)C)c1 [Example 3] | – | change in vivo at 30 mg/kg (Rattus norvegicus): -55%
3 | COc1cc(C(C)(C)C)c(OC(=O)NS(=O)(=O)Nc2c(C(C)C)cccc2C(C)C)c(C(C)(C)C)c1 [Example 4, 2,6-bis(1,1-dimethylethyl)-4-methoxy phenyl[[[2,6-bis(1-methylethyl)phenyl]amino]sulfonyl]carbamate] | – | change in vivo at 30 mg/kg (Rattus norvegicus): -77%
4 | CC(C)(C)c1cccc(C(C)(C)C)c1OC(=O)NS(=O)(=O)NC(c1ccccc1)c1ccccc1 [Example 5, 2,6-bis(1,1-dimethylethyl)phenyl[[(diphenylmethyl)amino]sulfonyl]carbamate] | -35% | –
5 | CC(C)c1cccc(C(C)C)c1NS(=O)(=O)NC(=O)Oc1c(C(C)(C)C)cccc1C(C)(C)C [Example 6, 2,6-bis(1,1-dimethylethyl)phenyl[[[2,6-bis(1-methylethyl)phenyl]amino]sulfonyl]carbamate] | -57% | –
6 | CC(C)(C)c1cccc(C(C)(C)C)c1OC(=O)NS(=O)(=O)NCC(c1ccccc1)c1ccccc1 [Example 7, 2,6-bis(1,1-dimethylethyl)phenyl[[(2,2-diphenylethyl)amino]sulfonyl]carbamate] | -32% | –
7 | CC(C)(C)c1cccc(C(C)(C)C)c1OC(=O)NS(=O)(=O)Nc1ccccc1 [Example 8, 2,6-bis(1,1-dimethylethyl)phenyl[(phenylamino)sulfonyl]carbamate] | -26% | –
8 | CC(C)(C)c1cccc(C(C)(C)C)c1OC(=O)NS(=O)(=O)N(Cc1ccccc1)Cc1ccccc1 [Example 9] | -3% | –
9 | CC(C)c1cccc(C(C)C)c1OC(=O)NS(=O)(=O)N(c1ccccc1)c1ccccc1 [Example 10, 2,6-bis(1-methylethyl)phenyl[(diphenylamino)sulfonyl]carbamate] | – | change in vivo at 30 mg/kg (Rattus norvegicus): -67%
10 | CC(C)c1cccc(C(C)C)c1OC(=O)NS(=O)(=O)N(Cc1ccccc1)Cc1ccccc1 [Example 12, 2,6-Bis(1-methylethyl)phenyl[[bis(phenylmethyl)amino]sulfonyl]carbamate] | – | change in vivo at 30 mg/kg (Rattus norvegicus): -43%
11 | CC(C)c1cccc(C(C)C)c1OC(=O)NS(=O)(=O)Nc1nc2ccccc2[nH]1 [Example 13, 2,6-Bis(1-methylethyl)phenyl[(1H-benzimidazol-2-ylamino)sulfonyl]carbamate] | – | change in vivo at 30 mg/kg (Rattus norvegicus): 8%
12 | CC(C)c1cccc(C(C)C)c1OC(=O)NS(=O)(=O)Nc1ccccc1 [Example 14, 2,6-Bis(1-methylethyl)phenyl[(phenylamino)sulfonyl]carbamate] | -55% | –
13 | CC(C)c1cccc(C(C)C)c1OC(=O)NS(=O)(=O)NCC(c1ccccc1)c1ccccc1 [Example 15] | -29% | –
14 | CC(C)c1cccc(C(C)C)c1NS(=O)(=O)NC(=O)Oc1c(C(C)C)cccc1C(C)C [Example 16, 2,6-Bis(1-methylethyl)phenyl[[[2,6-bis(1-methylethyl)phenyl]amino]sulfonyl]carbamate] | -65% | –
15 | CC(C)c1cccc(C(C)C)c1OC(=O)NS(=O)(=O)NC(c1ccccc1)c1ccccc1 [Example 17, 2,6-Bis(1-methylethyl)phenyl[[(diphenylmethyl)amino]sulfonyl]carbamate] | -46% | –
16 | Cc1cc(C(C)(C)C)c(OC(=O)NS(=O)(=O)NC(c2ccccc2)c2ccccc2)c(C(C)(C)C)c1 [Example 18, 2,6-Bis(1,1-dimethylethyl)-4-methylphenyl[[(diphenylmethyl)amino]sulfonyl]carbamate] | -42% | –
17 | Cc1cc(C(C)(C)C)c(OC(=O)NS(=O)(=O)Nc2c(C(C)C)cccc2C(C)C)c(C(C)(C)C)c1 [Example 19] | -56% | –
18 | Cc1cc(C(C)(C)C)c(OC(=O)NS(=O)(=O)NCC(c2ccccc2)c2ccccc2)c(C(C)(C)C)c1 [Example 20, 2,6-Bis(1,1-dimethylethyl)-4-methylphenyl[[(2,2-diphenylethyl)amino]sulfonyl]carbamate] | -54% | –
